Measured values taken from ChEMBL document CHEMBL5661943, “ASAP - In vitro antiviral effect” (2024).

Columns and labels:
dengue virus type 2 = test: Functional assay to measure dose dependent changes in antiviral-drug inhibitory efficacy against Dengue virus type 2 New Guinea C in Vero E6 miRFP670 cells (cotreated with P-gp inhibitor, CP100356). Cells are treated with antiviral candidates that are serially diluted, following infection, cells are fixed. EC50 is reported via analysis of fluorescence intensity using high-content imager. The …; format: organism-based, Chlorocebus sabaeus, Vero C1008; conditions: Dengue virus; for EC90: P-gp concentration 500 nM, P-gp inhibitor CP100356
Zika virus = test: Functional CPE-based assay to measure dose dependent changes in antiviral-drug inhibitory efficacy against Zika virus MR766 in Vero E6 miRFP670 cells (cotreated with P-gp inhibitor, CP100356). Cells are treated with antiviral candidates that are serially diluted. EC50 is reported via analysis of MTS assay as a readout of CPE. The assay has been performed by KU Leuven.; format: organism-based, Chlorocebus sabaeus, Vero C1008; conditions: Zika virus

SMILES	EC50 (dengue virus type 2; Vero C1008) [µM]	EC50 (Zika virus; Vero C1008) [µM]	other results
O=C(Nc1cc(Cl)cc([C@H](C#CCO)Nc2ccc(-c3nn[nH]n3)cc2)c1)OCc1ccccc1	> 50	–	EC90 (dengue virus type 2; Vero C1008, Maximum measured 120.318 %, Minimum measured 85.942 %): > 50 µM
CC(=Cc1cccc(CN)c1)c1cc(Cl)cc(NC(=O)OCc2ccccc2)c1	> 6.25	–	EC90 (dengue virus type 2; Vero C1008, Maximum measured 157.677 %, Minimum measured 102.187 %): > 6.25 µM
O=C(Nc1ccc2c(c1)CNC2)c1cc(Cl)cc2[nH]c(-c3cccc(F)c3)nc12	–	> 50	EC90 (Zika virus; Vero C1008, Baseline response 0 %, Hill slope 0.814, Maximum measured 40.434 %, Maximum response 100 %, Minimum measured 0.118 %, P-gp concentration 500 nM, R squared 0.904, P-gp inhibitor CP100356): > 50 µM
N[C@H]1CC[C@H](c2ccc(NC(=O)c3cc(Cl)cc(NC(=O)OCc4ccccc4)c3)cc2)C1	1.49	–	EC90 (dengue virus type 2; Vero C1008, Baseline response 0 %, Hill slope -16.959, Maximum measured 155.273 %, Maximum response 100 %, Minimum measured 29.767 %, R squared 0.495): > 1.56 µM
CNC(=O)[C@H](Nc1cccc(CN)c1)c1cc(Cl)cc(NC(=O)OCc2ccccc2)c1	7.81	–	EC90 (dengue virus type 2; Vero C1008, Baseline response 0 %, EC90 CI (lower) 4.909 uM, EC90 CI (upper) 7.205 uM, Hill slope -8.054, Maximum measured 105.221 %, Maximum response 100 %, Minimum measured 2.373 %, R squared 0.934): 10.3 µM
Clc1cccc([C@H](C#Cc2ccccc2)Nc2cccc(-c3nn[nH]n3)c2)c1	> 6.25	–	EC90 (dengue virus type 2; Vero C1008, Maximum measured 160.53 %, Minimum measured 108.244 %): > 6.25 µM
O=C(Nc1ccc2c(c1)CN[C@H]2C1CC1)c1cc(F)cc2[nH]ncc12	–	6.28	EC90 (Zika virus; Vero C1008): 7.09 µM
NCc1ccc([C@H]2C[C@@H]2c2cc(Cl)cc(NC(=O)OCc3ccccc3)c2)cc1	2.72	–	EC90 (dengue virus type 2; Vero C1008, Baseline response 0 %, Hill slope -3.689, Maximum measured 118.529 %, Maximum response 100 %, Minimum measured 38.173 %, R squared 0.774): > 3.12 µM
C=CC[C@H](Nc1cccc(-c2nn[nH]n2)c1)c1cc(Cl)cc(NC(=O)OCc2ccccc2)c1	< 0.391	–	EC90 (dengue virus type 2; Vero C1008, Baseline response 0 %, EC90 CI (lower) 0.009 uM, EC90 CI (upper) 0.062 uM, Hill slope -1.268, Maximum measured 19.733 %, Maximum response 100 %, Minimum measured 0.468 %, R squared 0.944): 0.74 µM
O=C(Nc1cc(Cl)cc(C(=O)Nc2ccc3c(c2)CCNC3)c1)OCc1ccccc1	> 1.56	–	EC90 (dengue virus type 2; Vero C1008, Maximum measured 159.578 %, Minimum measured 136.105 %): > 1.56 µM
C[C@H]1NCc2cc(NC(=O)c3cc(F)cc4[nH]ncc34)ccc21	–	> 50	EC90 (Zika virus; Vero C1008, Baseline response 0 %, Hill slope 1.233, Maximum measured 13.741 %, Maximum response 100 %, Minimum measured -1.755 %, P-gp concentration 500 nM, R squared 0.661, P-gp inhibitor CP100356): > 50 µM
CNC(=O)[C@H](Nc1cc(Cl)cc(NC(=O)OCc2ccccc2)c1)c1cccc(CN)c1	7.19	–	EC90 (dengue virus type 2; Vero C1008, Baseline response 0 %, EC90 CI (lower) 3.139 uM, EC90 CI (upper) 9.78 uM, Hill slope -8.413, Maximum measured 116.634 %, Maximum response 100 %, Minimum measured 2.553 %, R squared 0.885): 9.34 µM
O=C(Nc1ccc2c(c1)CNC2)c1cc(Cl)cc2[nH]c(-c3ccccc3)nc12	–	> 50	EC90 (Zika virus; Vero C1008, Baseline response 0 %, Hill slope 1.72, Maximum measured 10.819 %, Maximum response 100 %, Minimum measured -5.769 %, P-gp concentration 500 nM, R squared 0.199, P-gp inhibitor CP100356): > 50 µM
N#C[C@H](Nc1cc(Cl)cc(NC(=O)OCc2ccccc2)c1)c1ccc(-c2nn[nH]n2)cc1	> 50	–	EC90 (dengue virus type 2; Vero C1008, Baseline response 0 %, Hill slope -0.236, Maximum measured 132.412 %, Maximum response 100 %, Minimum measured 19.2 %, R squared 0.02): > 50 µM
O=C(Nc1ccc2c(c1)CNC2)c1cc(Cl)cc(N2CCCC2)c1	–	> 50	EC90 (Zika virus; Vero C1008, Maximum measured 3.676 %, Minimum measured -16.143 %, P-gp concentration 500 nM, P-gp inhibitor CP100356): > 50 µM
O=C(Nc1cc(Cl)cc(C(=O)Nc2ccc([C@@H]3C[C@H]3C(=O)O)cc2)c1)OCc1ccccc1	> 50	–	EC90 (dengue virus type 2; Vero C1008, Maximum measured 124.209 %, Minimum measured 92.524 %): > 50 µM
